From the RepoRT retention time repository (doi:10.1016/j.jhazmat.2019.121712)

Test: Thermo Scientific Acclaim RSLC 120 C18, 100 × 2.1 mm, 2.2 µm, 30 °C; A: 90% water + 10% methanol + 0.01% formic acid + 5 mM ammonium formate; B: methanol + 0.01% formic acid + 5 mM ammonium formate; gradient (min/%B) 0.1/1 3/39 14/99.9 16/99.9
Settings: stereoisomer not certain
Molecule `Cc1ccnc(NS(=O)(=O)c2ccc(N)cc2)n1` has an LC retention time of 3.95 min. For `COP(=O)(OC)OC(C)=CC(=O)N(C)C`, the LC retention time was 4.5 min. With `CN=C(NC)NCc1ccccc1` the LC retention time was 3.97 min. `CCNCC(O)c1cccc(O)c1` (stereo not given) gave an LC retention time of 2.66 min. Work on `COP(=O)(OC)Oc1ccc([N+](=O)[O-])cc1` yielded an LC retention time of 6.36 min. In the case of `CCCN1CC(CSC)CC2c3cccc4[nH]cc(c34)CC21` (stereo not given), the LC retention time is reported as 6.19 min. For `CC(=O)OC1CN2CCC1CC2` (stereo not given), the LC retention time was 4.87 min. In the case of `NCCCCC(NC(CCc1ccccc1)C(=O)O)C(=O)N1CCCC1C(=O)O` (stereo not given), the LC retention time is reported as 3.98 min. Molecule `CC(C)(C)c1n[nH]c(=O)n(N)c1=O` has an LC retention time of 5.89 min. Work on `CCOC(=O)CC(SP(=O)(OC)OC)C(=O)OCC` (stereo not given) yielded an LC retention time of 7.01 min. Molecule `Oc1ccc2c3c1OC1C(O)CCC4(O)C(C2)N(CC2CCC2)CCC314` (stereo not given) has an LC retention time of 4.17 min. `CC(=O)OC1C=CC2C3Cc4ccc(O)c5c4C2(CCN3C)C1O5` (stereo not given) showed an LC retention time of 3.75 min. With `CC(Cn1cnc2c(N)ncnc21)OCP(=O)(O)O` (stereo not given) the LC retention time was 2.69 min. `COC(=O)Nc1cccc(OC(=O)Nc2cccc(C)c2)c1` showed an LC retention time of 8.75 min. Work on `CCCN(CCC)CCc1cccc2c1CC(=O)N2` yielded an LC retention time of 3.98 min. In the case of `CC(C)N(CCc1c[nH]c2ccccc12)C(C)C`, the LC retention time is reported as 4.87 min. `CCCCCn1cc(C(=O)Cc2ccccc2C)c2ccccc21` gave an LC retention time of 12.2 min. For `CC(Cc1ccccc1)NCCn1cnc2c1c(=O)n(C)c(=O)n2C` (stereo not given), the LC retention time was 5.06 min. Work on `O=C(c1cccc2ccccc12)c1cn(CCN2CCOCC2)c2cccc(O)c12` yielded an LC retention time of 10.1 min. Molecule `CCCCCC(C)n1c(C)c(C(=O)c2cccc3ccccc23)c2ccccc21` (stereo not given) has an LC retention time of 13 min. In the case of `CCN(CC)C(C)C(=O)c1ccccc1` (stereo not given), the LC retention time is reported as 4.11 min. `CCOP(=S)(OCC)Oc1cnc2ccccc2n1` showed an LC retention time of 10.8 min. Molecule `CN(C)c1nc(=O)n(C2CCCCC2)c(=O)n1C` has an LC retention time of 7.09 min. `CNC(=O)Oc1cccc2ccccc12` showed an LC retention time of 7.46 min. With `CCN(CCO)CCn1c(Cc2ccccc2)nc2c1c(=O)n(C)c(=O)n2C` the LC retention time was 5.24 min. Molecule `CC12C=CC3=C4CCC(=O)C=C4CCC3C1CCC2O` (stereo not given) has an LC retention time of 8.89 min. With `COC(=O)C1C(O)CC2CCC1N2C` (stereo not given) the LC retention time was 1.38 min. Work on `CCC(N)Cc1c[nH]c2ccccc12` (stereo not given) yielded an LC retention time of 5.04 min. For `NNCCc1ccccc1`, the LC retention time was 3.71 min. Work on `CSC(C)=NOC(=O)N(C)SN(C)C(=O)ON=C(C)SC` yielded an LC retention time of 7.64 min. With `COP(=S)(OC)Oc1ccc(Sc2ccc(OP(=S)(OC)OC)cc2)cc1` the LC retention time was 12.4 min. For `CC1(c2ccc(Oc3ccccc3)cc2)OC(=O)N(Nc2ccccc2)C1=O` (stereo not given), the LC retention time was 11 min. With `CCCCn1cc(C(=O)c2cccc3ccccc23)c2c(O)cccc21` the LC retention time was 12 min. With `CN(C)CCC=C1c2ccccc2CCc2ccccc21` the LC retention time was 8.23 min. `COCC(C)N(C(=O)CS(=O)(=O)O)c1c(C)csc1C` (stereo not given) gave an LC retention time of 6.28 min. `CC(C)N(C(=O)CS(=O)(=O)O)c1ccccc1` gave an LC retention time of 5.46 min. `CCCSP(=O)(OCC)SCCC` showed an LC retention time of 10.2 min. Molecule `CC(=O)c1ccc2c(c1)N(CCCN(C)C)c1ccccc1S2` has an LC retention time of 7.47 min. With `CCOc1nc2cccc(C(=O)O)c2n1Cc1ccc(-c2ccccc2-c2nn[nH]n2)cc1` the LC retention time was 7.93 min. `CCN(CC)CCNC(=O)c1ccc(N)cc1` showed an LC retention time of 2.83 min. For `Nc1ccc(S(N)(=O)=O)cc1`, the LC retention time was 2.23 min. Molecule `CC(C)Nc1nc(N)[nH]c(=O)n1` has an LC retention time of 3.16 min. Work on `Cc1cccc(Nc2ccncc2S(=O)(=O)NC(=O)NC(C)C)c1` yielded an LC retention time of 6.67 min. Work on `CC1C(c2ccccc2)OCCN1C` (stereo not given) yielded an LC retention time of 4.06 min. With `CCOC(=O)C(CCc1ccccc1)NC(C)C(=O)N1Cc2ccccc2CC1C(=O)O` (stereo not given) the LC retention time was 9.03 min. `CCOP(=S)(NC(C)C)Oc1ccccc1C(=O)OC(C)C` (stereo not given) gave an LC retention time of 11.2 min. `CCC1OC(=O)CC(O)C(C)C(OC2OC(C)C(O)C(N(C)C)C2O)C(CCN2CC(C)CC(C)C2)CC(C)C(=O)C=CC(C)=CC1COC1OC(C)C(O)C(OC)C1OC` (stereo not given) gave an LC retention time of 6.69 min. `CNC(C)C(=O)c1ccc(OC)cc1` (stereo not given) showed an LC retention time of 4.16 min. For `CC1CC2C(C(O)CC3(C)C2CCC3(O)C(=O)CO)C2(C)C=CC(=O)C=C12` (stereo not given), the LC retention time was 8.75 min. `CC(C)(C)NCC(O)COc1ccccc1C#N` (stereo not given) showed an LC retention time of 4.66 min. `CN(C)c1nc(N(C)C)nc(N(C)C)n1` showed an LC retention time of 10.1 min. `NS(=O)(=O)c1cc(C(=O)O)cc(N2CCCC2)c1Oc1ccccc1` showed an LC retention time of 7.17 min. With `CC(C)c1ccc(NC(=O)N(C)C)cc1` the LC retention time was 8.32 min. `CCOP(=O)(OCC)Oc1cc(C)nc(C(C)C)n1` showed an LC retention time of 8.65 min. `Cc1c(NC(=O)c2cccnc2)c(=O)n(-c2ccccc2)n1C` gave an LC retention time of 4.56 min.
